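How tested: cells in 96-well plates exposed to compound for 48 hours at five concentrations. GI50: concentration for 50% inhibition of growth.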 Active and inactive are the calls of the source. No stated cut-off is given here; in the data, active = GI50 up to about 1.1 µM and inactive = higher.
Experiments:
Experiment in all cases: NCI anticancer screen, dose series, 48 h
[1] = system: NCI-H226
[2] = system: SK-MEL-5
[3] = system: CCRF-CEM
[4] = system: KM12
[5] = system: RPMI-8226
[6] = system: MDA-MB-435
[7] = system: IGROV-1
[8] = system: NCI-H23
[9] = system: MDA-N
[10] = system: K562
[11] = system: COLO 205
[12] = system: BT-549
[13] = system: T47D
[14] = system: 786-0
[15] = system: HL-60
[16] = system: DU-145
[17] = system: SF-268
[18] = system: OVCAR-8
[19] = system: SNB-19

SMILES | GI50 [1] | GI50 [2] | GI50 [3] | GI50 [4] | GI50 [5] | GI50 [6] | GI50 [7] | GI50 [8] | GI50 [9] | GI50 [10] | GI50 [11] | GI50 [12] | GI50 [13] | GI50 [14] | GI50 [15] | GI50 [16] | GI50 [17] | GI50 [18] | GI50 [19]
Cc1cc(S(=O)(=O)Nc2nc(Nc3ccccc3)n[nH]2)c(SCC(=O)O)cc1Cl | > 100 µM (inactive) | > 100 µM (inactive) | > 100 µM (inactive) | > 100 µM (inactive) | > 100 µM (inactive) | > 100 µM (inactive) | > 100 µM (inactive) | > 100 µM (inactive) | > 100 µM (inactive) | > 100 µM (inactive) | > 100 µM (inactive) | > 100 µM (inactive) | > 100 µM (inactive) | > 100 µM (inactive) | > 100 µM (inactive) | > 100 µM (inactive) | > 100 µM (inactive) | > 100 µM (inactive) | > 100 µM (inactive)
COc1ccc2c(c1)OC1c3ccccc3OCC21 (stereo not given) | 47.1 µM (inactive) | 24.7 µM (inactive) | 58.7 µM (inactive) | 28.4 µM (inactive) | 71 µM (inactive) | 30.7 µM (inactive) | > 100 µM (inactive) | 61.4 µM (inactive) | 36.6 µM (inactive) | 31.8 µM (inactive) | > 100 µM (inactive) | 59.7 µM (inactive) | 72.6 µM (inactive) | > 100 µM (inactive) | 34.6 µM (inactive) | > 100 µM (inactive) | 32.8 µM (inactive) | > 100 µM (inactive) | 93.3 µM (inactive)
O=C1c2ccccc2C(=O)N1CCCC(=O)n1cc(F)c(=O)[nH]c1=O | 38.5 µM (inactive) | 12.3 µM (inactive) | 18.6 µM (inactive) | 6.73 µM (inactive) | 5.06 µM (inactive) | > 37.1 µM (inactive) | 3.4 µM (inactive) | 11.9 µM (inactive) | 16.1 µM (inactive) | 24.9 µM (inactive) | 6.62 µM (inactive) | > 100 µM (inactive) | > 33.7 µM (inactive) | 14.4 µM (inactive) | 7.78 µM (inactive) | 10.1 µM (inactive) | 69.2 µM (inactive) | 10.7 µM (inactive) | 49.1 µM (inactive)
COC(=O)c1cc(C(=CCC[C@H]2CC[C@@]3(C)C(CCC4C3CC[C@@]3(C)C4CC[C@@H]3C(C)CCCC(C)C)C2)c2cc(Cl)c(OC(=O)c3ccccc3)c(C(=O)OC)c2)cc(Cl)c1OC(=O)c1ccccc1 (stereo not given in full) | > 10 µM (inactive) | > 10 µM (inactive) | > 10 µM (inactive) | > 10 µM (inactive) | > 10 µM (inactive) | > 10 µM (inactive) | > 10 µM (inactive) | > 10 µM (inactive) | > 10 µM (inactive) | > 10 µM (inactive) | > 10 µM (inactive) | > 10 µM (inactive) | > 10 µM (inactive) | > 10 µM (inactive) | > 10 µM (inactive) | > 10 µM (inactive) | > 10 µM (inactive) | > 10 µM (inactive) | > 10 µM (inactive)
COC(=O)c1cc(OC)c(OC)c(OC)c1-c1cc2c(cc1C=O)OCO2 | > 10 µM (inactive) | > 10 µM (inactive) | > 10 µM (inactive) | > 10 µM (inactive) | > 10 µM (inactive) | > 10 µM (inactive) | > 10 µM (inactive) | > 10 µM (inactive) | > 10 µM (inactive) | > 10 µM (inactive) | > 10 µM (inactive) | > 10 µM (inactive) | > 10 µM (inactive) | > 10 µM (inactive) | > 10 µM (inactive) | > 10 µM (inactive) | > 10 µM (inactive) | > 10 µM (inactive) | > 10 µM (inactive)
CC1=CC(=O)[C@@H](O)[C@]2(C)[C@H]3[C@@]4(O)OC[C@]35[C@H]([C@@H](C)[C@H]4O)[C@@H](OC(=O)C(C)(C)CO)C(=O)O[C@@H]5C[C@@H]12 | < 0.0216 µM (active) | < 0.0204 µM (active) | 0.0362 µM (active) | < 0.0271 µM (active) | 0.0158 µM (active) | 0.12 µM (active) | < 0.0165 µM (active) | < 0.0179 µM (active) | 0.0769 µM (active) | 0.0123 µM (active) | 1.73 µM (inactive) | 0.0428 µM (active) | 0.0209 µM (active) | 0.16 µM (active) | 0.0243 µM (active) | 0.305 µM (active) | < 0.0379 µM (active) | 0.19 µM (active) | 0.05 µM (active)
CC(C(N)=O)N(C)C(=O)c1cc2ccccc2[n+](Cc2ccccc2)c1 (stereo not given) | > 100 µM (inactive) | > 100 µM (inactive) | > 100 µM (inactive) | > 100 µM (inactive) | > 100 µM (inactive) | > 100 µM (inactive) | > 100 µM (inactive) | > 100 µM (inactive) | > 100 µM (inactive) | > 100 µM (inactive) | > 100 µM (inactive) | > 100 µM (inactive) | > 100 µM (inactive) | > 100 µM (inactive) | > 100 µM (inactive) | > 100 µM (inactive) | > 100 µM (inactive) | > 100 µM (inactive) | > 100 µM (inactive)
CCOC(=O)C1=C(C)N(C)C23OC4(C(=O)OC)CC2c2ccccc2C1N3C4=O (stereo not given) | > 100 µM (inactive) | 32.5 µM (inactive) | 79.6 µM (inactive) | 84.5 µM (inactive) | 44.8 µM (inactive) | 30.8 µM (inactive) | > 100 µM (inactive) | > 100 µM (inactive) | 14.2 µM (inactive) | 83 µM (inactive) | > 100 µM (inactive) | > 100 µM (inactive) | > 100 µM (inactive) | > 100 µM (inactive) | 24.6 µM (inactive) | > 100 µM (inactive) | > 100 µM (inactive) | > 100 µM (inactive) | > 100 µM (inactive)
CO[C@H]1[C@@H](O)[C@H](O[C@@H]2C[C@H]3CC[C@@H]4[C@H](CC[C@]5(C)[C@@H](C6=CC(=O)OC6)CC[C@]45O)[C@@]3(C)[C@H](OC(C)=O)C2)O[C@@H](C)[C@H]1O | 2.96 µM (inactive) | 0.494 µM (active) | 0.65 µM (active) | 5.83 µM (inactive) | 2.05 µM (inactive) | 3.19 µM (inactive) | 1.46 µM (inactive) | 0.662 µM (active) | 1.64 µM (inactive) | 1.96 µM (inactive) | 2.06 µM (inactive) | 0.637 µM (active) | 3.19 µM (inactive) | 1.84 µM (inactive) | 0.402 µM (active) | 0.726 µM (active) | 0.646 µM (active) | 1.73 µM (inactive) | 4.28 µM (inactive)
N#Cc1c(N)nc2c(c1-c1ccc(Br)cc1)CSc1ccccc1-2 | 16.1 µM (inactive) | 58.7 µM (inactive) | 22.4 µM (inactive) | 56 µM (inactive) | 18.2 µM (inactive) | 19.5 µM (inactive) | 21.9 µM (inactive) | 29.6 µM (inactive) | 49.4 µM (inactive) | 32.1 µM (inactive) | 13.3 µM (inactive) | > 100 µM (inactive) | 17.4 µM (inactive) | 27.1 µM (inactive) | 33.7 µM (inactive) | 96.6 µM (inactive) | 33.1 µM (inactive) | 55 µM (inactive) | 39.7 µM (inactive)
